Data from ChEMBL document CHEMBL5696442, “Discovery of type II inhibitors of TGFβ-activated kinase 1 (TAK1) and mitogen-activated protein kinase kinase kinase kinase 2 (MAP4K2)” (J Med Chem, 2015).
Calls of active or inactive are those of the source. No cut-off for these calls is given here.

Key:
[1] = target: Cyclin-dependent kinase 13 (Homo sapiens) (UniProt Q14004); assay: Inhibition of CHED Lys2 labeling site harbouring DIKCSNILLNNR in human Huh-7 cell lysate at 1 uM by KiNativ Profiling analysis relative to control; type: subcellular
[2] = target: T1, NUAK family SNF1-like kinase 1 (Homo sapiens) (UniProt O60285); assay: Inhibition of NuaK1 Lys2 labeling site in human Huh-7 cell lysate at 1 uM by KiNativ Profiling analysis relative to control; type: subcellular
T1 sequence (whole entry): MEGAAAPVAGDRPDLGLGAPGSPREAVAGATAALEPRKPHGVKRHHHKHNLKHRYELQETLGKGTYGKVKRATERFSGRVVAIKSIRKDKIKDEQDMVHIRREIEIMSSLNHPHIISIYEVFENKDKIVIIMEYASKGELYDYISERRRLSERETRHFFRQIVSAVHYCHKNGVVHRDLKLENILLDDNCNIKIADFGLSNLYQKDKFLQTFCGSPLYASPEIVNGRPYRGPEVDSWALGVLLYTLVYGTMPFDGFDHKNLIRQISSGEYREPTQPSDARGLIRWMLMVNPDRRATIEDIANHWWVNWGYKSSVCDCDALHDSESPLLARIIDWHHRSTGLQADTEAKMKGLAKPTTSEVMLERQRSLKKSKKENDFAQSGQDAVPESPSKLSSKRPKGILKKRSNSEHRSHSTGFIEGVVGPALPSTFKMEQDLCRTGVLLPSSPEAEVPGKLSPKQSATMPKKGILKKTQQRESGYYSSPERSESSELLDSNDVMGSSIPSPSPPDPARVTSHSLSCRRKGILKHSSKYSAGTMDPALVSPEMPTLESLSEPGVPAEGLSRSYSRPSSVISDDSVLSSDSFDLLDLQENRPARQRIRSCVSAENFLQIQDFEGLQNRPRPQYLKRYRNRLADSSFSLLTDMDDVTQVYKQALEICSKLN

[3] = target: Serine/threonine-protein kinase Nek6 (Homo sapiens) (UniProt Q9HC98); assay: Inhibition of NEK6 Lys2 labeling site harbouring DIKPANVFITATGVVK in human Huh-7 cells at 1 uM by KiNativ Profiling analysis relative to control; type: cell-based
[4] = target: Calcium/calmodulin-dependent protein kinase type II subunit delta (Homo sapiens) (UniProt Q13557); assay: Inhibition of CAMK2D (unknown origin) at 10 uM by Ambit Kinomescan binding assay
[5] = target: Dual specificity protein kinase CLK4 (Homo sapiens) (UniProt Q9HAZ1); assay: Inhibition of CLK4 (unknown origin) at 10 uM by Ambit Kinomescan binding assay
[6] = target: Casein kinase I isoform gamma-3 (Homo sapiens) (UniProt Q9Y6M4); assay: Inhibition of CSNK1G3 (unknown origin) at 10 uM by Ambit Kinomescan binding assay
[7] = target: Cyclin-dependent kinase 11B (Homo sapiens) (UniProt P21127); assay: Inhibition of CDK11 Lys2 labeling site in human A-375 cells at 0.5 uM by KiNativ Profiling analysis relative to control; type: cell-based
[8] = target: Epidermal growth factor receptor (Homo sapiens) (UniProt P00533); assay: Inhibition of EGFR Lys1 labeling site in human A-375 cells at 0.05 uM by KiNativ Profiling analysis relative to control; type: cell-based
[9] = target: DNA-dependent protein kinase catalytic subunit (Homo sapiens) (UniProt P78527); assay: Inhibition of PRKDC ATP labeling site harbouring KGGSWIQEINVAEK in human Huh-7 cells at 1 uM by KiNativ Profiling analysis relative to control; type: cell-based
[10] = target: Citron Rho-interacting kinase (Homo sapiens) (UniProt O14578); assay: Inhibition of CIT (unknown origin) at 1 uM by Ambit Kinomescan binding assay relative to control
[11] = system: Epidermal growth factor receptor (Homo sapiens), P00533 [L858R]; assay: Inhibition of EGFR L858R mutant (unknown origin) at 1 uM by Ambit Kinomescan binding assay relative to control
[12] = target: Ephrin type-A receptor 6 (Homo sapiens) (UniProt Q9UF33); assay: Inhibition of EPHA6 (unknown origin) at 1 uM by Ambit Kinomescan binding assay relative to control; values are per cent of control
Chain of Ephrin type-A receptor 6 (Homo sapiens) (Q9UF33 whole entry): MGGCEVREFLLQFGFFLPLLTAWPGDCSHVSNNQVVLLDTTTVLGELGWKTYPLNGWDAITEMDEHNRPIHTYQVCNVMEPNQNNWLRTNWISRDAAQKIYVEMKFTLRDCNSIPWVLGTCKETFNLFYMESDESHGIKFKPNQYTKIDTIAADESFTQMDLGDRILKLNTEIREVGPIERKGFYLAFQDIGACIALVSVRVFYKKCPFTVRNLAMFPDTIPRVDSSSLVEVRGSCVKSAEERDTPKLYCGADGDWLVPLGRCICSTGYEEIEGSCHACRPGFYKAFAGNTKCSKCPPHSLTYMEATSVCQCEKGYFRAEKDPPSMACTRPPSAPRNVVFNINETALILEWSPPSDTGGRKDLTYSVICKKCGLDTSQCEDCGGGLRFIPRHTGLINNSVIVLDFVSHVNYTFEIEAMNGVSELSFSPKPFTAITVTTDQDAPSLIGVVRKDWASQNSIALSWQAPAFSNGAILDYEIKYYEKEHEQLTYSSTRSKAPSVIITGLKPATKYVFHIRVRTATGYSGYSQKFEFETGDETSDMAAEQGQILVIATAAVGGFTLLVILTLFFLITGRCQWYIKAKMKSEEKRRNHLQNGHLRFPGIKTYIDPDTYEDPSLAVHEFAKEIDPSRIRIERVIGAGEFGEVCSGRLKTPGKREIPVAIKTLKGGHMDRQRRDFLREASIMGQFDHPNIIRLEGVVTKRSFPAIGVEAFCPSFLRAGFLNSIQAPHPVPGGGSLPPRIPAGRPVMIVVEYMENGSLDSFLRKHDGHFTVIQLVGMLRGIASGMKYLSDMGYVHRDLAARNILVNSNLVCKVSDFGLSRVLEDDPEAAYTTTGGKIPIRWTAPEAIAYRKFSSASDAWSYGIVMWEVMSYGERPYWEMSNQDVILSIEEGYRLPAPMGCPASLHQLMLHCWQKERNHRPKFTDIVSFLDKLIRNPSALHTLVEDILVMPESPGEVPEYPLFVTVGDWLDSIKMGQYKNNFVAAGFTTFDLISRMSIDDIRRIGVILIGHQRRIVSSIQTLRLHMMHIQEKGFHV

Chain of Calcium/calmodulin-dependent protein kinase type II subunit delta (Homo sapiens) (Q13557 whole entry): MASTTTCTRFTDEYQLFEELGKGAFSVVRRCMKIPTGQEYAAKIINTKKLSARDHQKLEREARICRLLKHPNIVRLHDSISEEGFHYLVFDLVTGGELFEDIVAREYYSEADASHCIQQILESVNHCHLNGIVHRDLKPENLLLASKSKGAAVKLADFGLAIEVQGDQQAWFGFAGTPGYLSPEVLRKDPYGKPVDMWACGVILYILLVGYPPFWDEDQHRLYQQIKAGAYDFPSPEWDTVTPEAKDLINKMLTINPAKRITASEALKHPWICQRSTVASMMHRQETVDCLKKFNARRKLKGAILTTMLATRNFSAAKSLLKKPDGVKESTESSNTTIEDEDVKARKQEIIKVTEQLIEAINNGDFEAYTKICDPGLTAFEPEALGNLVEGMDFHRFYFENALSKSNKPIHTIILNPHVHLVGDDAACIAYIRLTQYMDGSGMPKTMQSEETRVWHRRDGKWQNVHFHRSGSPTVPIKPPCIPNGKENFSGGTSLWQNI
Chain of Epidermal growth factor receptor (Homo sapiens), P00533 [L858R] (P00533 whole entry L858R): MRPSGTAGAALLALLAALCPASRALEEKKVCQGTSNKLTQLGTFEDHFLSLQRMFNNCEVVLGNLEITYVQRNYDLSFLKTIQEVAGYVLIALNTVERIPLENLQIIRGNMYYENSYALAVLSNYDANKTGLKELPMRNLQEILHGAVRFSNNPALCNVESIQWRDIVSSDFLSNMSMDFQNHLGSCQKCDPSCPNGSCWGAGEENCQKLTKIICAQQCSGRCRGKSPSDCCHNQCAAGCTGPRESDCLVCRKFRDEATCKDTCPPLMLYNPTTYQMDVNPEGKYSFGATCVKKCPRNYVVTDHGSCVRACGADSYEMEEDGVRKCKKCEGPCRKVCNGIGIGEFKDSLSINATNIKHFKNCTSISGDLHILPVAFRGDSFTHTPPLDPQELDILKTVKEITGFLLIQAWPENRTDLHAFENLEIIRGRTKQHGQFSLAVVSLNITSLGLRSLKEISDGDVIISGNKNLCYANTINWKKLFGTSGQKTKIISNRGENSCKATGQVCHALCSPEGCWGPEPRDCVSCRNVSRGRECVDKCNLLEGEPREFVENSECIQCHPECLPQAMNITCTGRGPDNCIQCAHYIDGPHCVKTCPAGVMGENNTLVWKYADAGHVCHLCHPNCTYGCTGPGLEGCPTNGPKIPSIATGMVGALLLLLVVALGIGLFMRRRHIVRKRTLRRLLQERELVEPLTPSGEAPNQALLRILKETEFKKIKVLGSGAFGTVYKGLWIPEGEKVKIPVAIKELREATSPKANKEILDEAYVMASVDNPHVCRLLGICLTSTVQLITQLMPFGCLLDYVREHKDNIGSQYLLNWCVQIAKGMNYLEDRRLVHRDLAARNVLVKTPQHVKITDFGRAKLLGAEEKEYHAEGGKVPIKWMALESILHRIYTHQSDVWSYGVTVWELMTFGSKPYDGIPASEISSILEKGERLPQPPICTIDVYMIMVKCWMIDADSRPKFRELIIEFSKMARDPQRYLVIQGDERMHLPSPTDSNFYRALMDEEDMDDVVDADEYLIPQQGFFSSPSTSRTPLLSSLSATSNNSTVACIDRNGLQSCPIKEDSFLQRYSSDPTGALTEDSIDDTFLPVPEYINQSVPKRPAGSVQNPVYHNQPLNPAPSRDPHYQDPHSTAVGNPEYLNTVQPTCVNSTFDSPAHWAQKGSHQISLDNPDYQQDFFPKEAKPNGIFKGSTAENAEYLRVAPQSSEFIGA
Chain of Citron Rho-interacting kinase (Homo sapiens) (O14578 whole entry): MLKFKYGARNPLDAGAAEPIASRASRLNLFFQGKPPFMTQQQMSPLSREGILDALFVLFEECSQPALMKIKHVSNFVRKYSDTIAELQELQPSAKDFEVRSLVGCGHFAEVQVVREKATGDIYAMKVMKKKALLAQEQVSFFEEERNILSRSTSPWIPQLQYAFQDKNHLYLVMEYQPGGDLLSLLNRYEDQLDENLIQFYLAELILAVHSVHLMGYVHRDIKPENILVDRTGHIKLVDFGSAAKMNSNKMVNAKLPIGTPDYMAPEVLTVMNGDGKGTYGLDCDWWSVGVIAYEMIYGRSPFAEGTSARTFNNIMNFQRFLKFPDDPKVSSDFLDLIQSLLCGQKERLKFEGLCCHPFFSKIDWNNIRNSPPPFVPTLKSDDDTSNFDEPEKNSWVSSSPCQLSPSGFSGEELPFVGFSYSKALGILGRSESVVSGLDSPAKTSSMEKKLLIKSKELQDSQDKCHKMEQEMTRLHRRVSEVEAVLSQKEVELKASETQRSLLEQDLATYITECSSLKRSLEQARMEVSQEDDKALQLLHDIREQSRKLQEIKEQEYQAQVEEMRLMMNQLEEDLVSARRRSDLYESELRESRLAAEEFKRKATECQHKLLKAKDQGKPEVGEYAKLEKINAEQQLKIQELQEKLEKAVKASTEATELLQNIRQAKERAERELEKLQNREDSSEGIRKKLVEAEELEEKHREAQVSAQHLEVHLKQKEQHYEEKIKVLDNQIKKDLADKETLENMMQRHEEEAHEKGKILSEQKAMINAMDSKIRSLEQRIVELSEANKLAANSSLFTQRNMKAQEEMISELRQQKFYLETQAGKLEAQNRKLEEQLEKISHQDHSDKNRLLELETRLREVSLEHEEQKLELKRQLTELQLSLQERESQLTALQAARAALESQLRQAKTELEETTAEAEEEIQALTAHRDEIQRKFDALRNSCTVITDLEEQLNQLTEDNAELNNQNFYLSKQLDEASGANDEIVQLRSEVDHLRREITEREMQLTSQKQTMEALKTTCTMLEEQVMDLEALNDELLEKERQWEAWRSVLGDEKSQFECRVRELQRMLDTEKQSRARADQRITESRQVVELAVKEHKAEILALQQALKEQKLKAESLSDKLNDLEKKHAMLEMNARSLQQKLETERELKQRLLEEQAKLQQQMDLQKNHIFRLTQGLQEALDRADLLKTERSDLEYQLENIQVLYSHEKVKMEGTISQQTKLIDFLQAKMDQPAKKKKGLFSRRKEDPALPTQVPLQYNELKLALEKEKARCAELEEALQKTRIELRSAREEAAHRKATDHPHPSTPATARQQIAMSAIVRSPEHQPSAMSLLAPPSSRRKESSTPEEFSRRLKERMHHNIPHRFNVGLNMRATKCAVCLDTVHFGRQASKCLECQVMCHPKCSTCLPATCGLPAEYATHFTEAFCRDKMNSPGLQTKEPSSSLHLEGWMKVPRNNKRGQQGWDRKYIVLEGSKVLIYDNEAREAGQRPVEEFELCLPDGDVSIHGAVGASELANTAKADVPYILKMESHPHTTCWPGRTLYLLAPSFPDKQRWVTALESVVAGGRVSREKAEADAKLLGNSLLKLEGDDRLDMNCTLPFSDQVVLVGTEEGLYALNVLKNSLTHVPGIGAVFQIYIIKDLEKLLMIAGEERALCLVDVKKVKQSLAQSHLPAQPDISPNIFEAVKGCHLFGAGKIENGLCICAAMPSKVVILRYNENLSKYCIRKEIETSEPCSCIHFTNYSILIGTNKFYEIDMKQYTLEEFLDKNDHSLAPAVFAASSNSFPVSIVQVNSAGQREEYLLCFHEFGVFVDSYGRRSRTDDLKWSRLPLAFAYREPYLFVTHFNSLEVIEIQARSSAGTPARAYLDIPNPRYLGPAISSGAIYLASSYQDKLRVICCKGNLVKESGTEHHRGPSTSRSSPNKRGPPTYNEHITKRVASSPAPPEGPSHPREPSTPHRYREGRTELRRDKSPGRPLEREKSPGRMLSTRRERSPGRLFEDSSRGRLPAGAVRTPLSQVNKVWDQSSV
Chain of Serine/threonine-protein kinase Nek6 (Homo sapiens) (Q9HC98 whole entry): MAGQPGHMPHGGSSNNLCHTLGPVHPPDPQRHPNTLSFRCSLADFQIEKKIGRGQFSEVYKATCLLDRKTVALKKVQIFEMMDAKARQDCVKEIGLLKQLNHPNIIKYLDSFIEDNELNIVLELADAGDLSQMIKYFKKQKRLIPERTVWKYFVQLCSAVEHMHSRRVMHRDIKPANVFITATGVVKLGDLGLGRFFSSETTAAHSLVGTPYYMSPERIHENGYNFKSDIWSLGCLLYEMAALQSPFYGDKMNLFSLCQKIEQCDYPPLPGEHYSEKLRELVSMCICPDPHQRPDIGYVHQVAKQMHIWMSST

Compound: CNc1cc(Oc2cc(C(=O)Nc3cc(N4CCN(C)CC4)cc(C(F)(F)F)c3)ccc2C)ncn1
- inhibition [1]: 14%
- inhibition [2]: -8.6%
- inhibition [3]: -2.7%

Compound: CCN1CCN(Cc2ccc(NC(=O)c3ccc(C)c(Oc4ccnc5[nH]ccc45)c3)cc2C(F)(F)F)CC1
- inhibition [4]: inactive
- inhibition [5]: inactive
- inhibition [6]: inactive
- inhibition [7]: 51.2%
- inhibition [8]: 11.7%
- inhibition [9]: 0.9%

Compound: CCN1CCN(Cc2ccc(NC(=O)c3ccc(C)c(/C=C/c4cnc5[nH]ccc5c4OC)c3)cc2C(F)(F)F)CC1
- inhibition [10]: 4.6%
- inhibition [11]: 4%
- residual activity [12]: 29%
